# Reference: US20220017572A1, “GEMINOID LIPOPEPTIDE COMPOUNDS AND THEIR USES” (Erasmus University Medical Center Rotterdam, priority 2016, published 2022)
# Residues, ends and D or L forms follow the SMILES beside them.
# Tests used:
# trypsin = target: T1, trypsin (Bos taurus, UniProt P00760); test: Trypsin inhibition, fluorimetric enzyme assay; format: biochemical; conditions: for remaining activity at 15 µM: 15 μM inhibitor; for remaining activity at 15 µM / remaining activity at 40 µM / remaining activity at 80 µM: 36.5° C., read-out: Residual Activity (%) Trypsin; for remaining activity at 40 µM: 40 μM inhibitor; for remaining activity at 80 µM: 80 μM inhibitor
# T1 construct: gene PRSS1
# T1 sequence (P00760 24-246): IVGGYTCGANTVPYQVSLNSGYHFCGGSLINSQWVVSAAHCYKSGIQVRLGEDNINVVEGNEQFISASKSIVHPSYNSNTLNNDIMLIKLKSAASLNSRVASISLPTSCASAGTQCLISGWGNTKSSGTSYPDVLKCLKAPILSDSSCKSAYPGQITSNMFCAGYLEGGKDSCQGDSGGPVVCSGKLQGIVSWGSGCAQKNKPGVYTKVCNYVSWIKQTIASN
# Procedure: (§1) The enzyme was dissolved in 1 mL MES buffer (10 mM), 1 mM CaCl2, pH 7.0 at 36.5° C. Substrate was added in a concentration 10 times the Km, and the inhibitor compounds of type C (C16-KGnK-C16, C16-KAnK-C16, and C16-RAnR-C16) were added in increasing concentrations (1.0, 5.0, 10.0, 20.0, 40.0 μL) from a stock solution of 2 mg in 1 mL DMSO. The residual activity was measured in a Hitachi F2500 spectrofluorimeter, and plots were fitted using the Grafit® software (Erithracus Software, Horley, Surrey, UK). All the assays were calculated by the Morrison equation for competitive inhibition (eq. 1, [Morrison, 1969]). The amount of substrate used for the tight binding titration experiments follow all the requirements, where [S]<<Km for all enzymes, so the Kiapp=Ki.
# The first group of gemini-like peptide amphiphiles to be screened was that of C16-K(G or A)nK-C16 (compound type C, with R1=n-C15H31, R2=n-C16H33). […] The results of the Ki determination for trypsin, dengue 2 protease, and human furin are given in Table 1A; some general data for the inhibition by this type of compounds are given in Table 1B. For most compounds in Table 1 the Ki could be derived from competitive inhibition experiments. Judging from the Ki values with the relatively simple substrate Z-RR-MCA, the best inhibitors for dengue 2 protease contain alanine (A) rather than glycine (G).
# dengue 2 protease [1] = target: T2, dengue 2 protease (Dengue virus type 2, UniProt P14340); test: Dengue 2 protease inhibition, hydrolysis of Z-RR-MCA; format: biochemical, dengue 2 virus; set-up: unit not given here; conditions: 10 μM Z-RR-MCA, pH 9.0, 37° C., initial activity in UAF/min
# T2 construct: The active site of the dengue protease is in the N-terminal part of NS3
# dengue 2 protease [2] = target: T2, dengue 2 protease; test: as above; format: biochemical, dengue 2 virus; conditions: for activity at 2.5 µM: 2.5 μM inhibitor; for activity at 2.5 µM / activity at 5 µM / activity at 10 µM / activity at 15 µM / activity at 40 µM: 36.5° C.; for activity at 5 µM: 5 μM inhibitor; for activity at 10 µM: 10 μM inhibitor; for activity at 15 µM: 15 μM inhibitor; for activity at 40 µM: 40 μM inhibitor
# Procedure: The active site of the dengue protease is in the N-terminal part of NS3 which is also a serine protease with catalytic triad Asp79-His51-Ser135, but requires […] (CF40) for activity; the inhibition reported here was studied on a […] (CF40-GGGGSGGGG-NS3; (SEQ ID NO:54)) which has also been structurally characterized [Erbel et al., 2006; Luo et al. 2008].
# as §1, with “Substrate” for “The enzyme was dissolved in 1 mL MES buffer (10 mM), 1 mM CaCl2, pH 7.0 at 36.5° C. Substrate”
# (§2) Range of Proteases Inhibited by Geminoids, Determination of Ki with Z-RR-MCA (Dengue 2 Protease) and Ac-RVRR-MCA (Furin) (SEQ ID NO:60).
# human furin = human furin (Homo sapiens, UniProt P09958); test: Human furin inhibition, hydrolysis of Ac-RVRR-MCA; format: biochemical; conditions: for activity at 2.5 µM: 2.5 μM inhibitor; for activity at 2.5 µM / activity at 5 µM / activity at 10 µM / activity at 15 µM / activity at 40 µM: 36.5° C.; for activity at 5 µM: 5 μM inhibitor; for activity at 10 µM: 10 μM inhibitor; for activity at 15 µM: 15 μM inhibitor; for activity at 40 µM: 40 μM inhibitor; for Ki: 10 mM Mes.NaOH, pH 7.0, 2.35 μM Ac-RVRR-MCA, 37° C., read-out: Ki hFurin
# Procedure: as §1
# However, for furin we used a correction of Ki app, where [S]˜Km (eq. 2).
# as §2
# dengue 2 protease [3] = target: T2, dengue 2 protease; test: Dengue 2 protease inhibition in presence of Triton X-100 (detergent test, Nature Protocol); format: biochemical, dengue 2 virus; conditions: 0.05% Triton X-100; for Activity with 0.05% Triton: initial activity in UAF/min
# Description: A further investigation of the interactions of the geminoid inhibitors with biological membranes and with membrane-bound proteases is needed. […] The preparation and tests of peptides symmetrically, asymmetrically and singly alkylated with saturated, short (C6), and unsaturated (C18:1) alkyl tails are in progress.
# human furin, sequence (P09958 108-794): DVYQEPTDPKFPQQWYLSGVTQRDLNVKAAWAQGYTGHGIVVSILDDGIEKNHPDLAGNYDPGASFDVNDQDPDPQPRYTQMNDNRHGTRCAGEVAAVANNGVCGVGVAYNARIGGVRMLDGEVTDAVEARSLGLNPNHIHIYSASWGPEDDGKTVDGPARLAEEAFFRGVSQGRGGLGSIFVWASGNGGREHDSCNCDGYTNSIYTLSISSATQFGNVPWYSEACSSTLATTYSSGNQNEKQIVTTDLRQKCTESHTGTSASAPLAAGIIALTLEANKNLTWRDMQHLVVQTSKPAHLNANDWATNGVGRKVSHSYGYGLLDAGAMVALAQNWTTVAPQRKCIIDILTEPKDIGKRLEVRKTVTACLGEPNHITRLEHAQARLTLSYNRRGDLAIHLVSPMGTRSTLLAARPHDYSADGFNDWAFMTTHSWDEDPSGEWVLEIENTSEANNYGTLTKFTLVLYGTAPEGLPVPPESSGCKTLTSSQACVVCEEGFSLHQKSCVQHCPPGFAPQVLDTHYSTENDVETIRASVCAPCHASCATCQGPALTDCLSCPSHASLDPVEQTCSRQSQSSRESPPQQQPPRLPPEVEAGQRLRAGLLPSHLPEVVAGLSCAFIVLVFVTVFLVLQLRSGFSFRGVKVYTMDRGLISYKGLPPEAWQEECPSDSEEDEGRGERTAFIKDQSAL
# T2 sequence (P14340 1476-1653): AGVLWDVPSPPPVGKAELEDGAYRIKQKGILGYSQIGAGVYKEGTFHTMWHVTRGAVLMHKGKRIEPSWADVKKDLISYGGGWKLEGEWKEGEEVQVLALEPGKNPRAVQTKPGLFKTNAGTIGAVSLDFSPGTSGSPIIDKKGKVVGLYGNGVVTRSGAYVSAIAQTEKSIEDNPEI
Structure (SMILES),remaining activity at 15 µM (trypsin),remaining activity at 40 µM (trypsin),remaining activity at 80 µM (trypsin),Activity with inhibitors (dengue 2 protease [1]; 30 μM of inhibitor),Ki (dengue 2 protease [2]),activity at 2.5 µM (dengue 2 protease [2]),activity at 5 µM (dengue 2 protease [2]),activity at 10 µM (dengue 2 protease [2]),activity at 15 µM (dengue 2 protease [2]),activity at 40 µM (dengue 2 protease [2]),activity at 2.5 µM (human furin),activity at 5 µM (human furin),activity at 10 µM (human furin),activity at 15 µM (human furin),activity at 40 µM (human furin),Ki (human furin),% recovery in presence of Triton (dengue 2 protease [3]; 30 μM of inhibitor),Activity with 0.05% Triton (dengue 2 protease [3]; 30 μM of inhibitor),Activity with inhibitors (dengue 2 protease [1]; 20 μM of inhibitor),% recovery in presence of Triton (dengue 2 protease [3]; 20 μM of inhibitor),also measured
CCCCCCCCCCCCCCCCNC(=O)[C@H](CCCCN)NC(=O)[C@H](C)NC(=O)[C@H](C)NC(=O)[C@H](C)NC(=O)[C@H](CCCCN)NC(=O)CCCCCCCCCCCCCCC [C16-KAAAK-C16] (HELM PEPTIDE1{[CCCCCCCCCCCCCCCC(=O)[*:2]].K.A.A.A.K.[CCCCCCCCCCCCCCCCN[*:1]]}$$$$V2.0),79%,54%,40%,0,1.41 µM,91%,85%,75%,64%,25%,73%,56%,24%,10%,0%,1.72 µM,50%,91,,,Ki (trypsin): 40.3 µM
CCCCCCCCCCCCCCCCNC(=O)[C@H](CCCCN)NC(=O)[C@H](C)NC(=O)[C@H](C)NC(=O)[C@H](C)NC(=O)[C@H](C)NC(=O)[C@H](CCCCN)NC(=O)CCCCCCCCCCCCCCC [C16-KAAAAK-C16] (HELM PEPTIDE1{[CCCCCCCCCCCCCCCC(=O)[*:2]].K.A.A.A.A.K.[CCCCCCCCCCCCCCCCN[*:1]]}$$$$V2.0),73%,35%,20%,,2.4 µM,94%,90%,85%,79%,45%,70%,59%,52%,45%,0%,1.75 µM,,,47,67%,Activity with 0.05% Triton (dengue 2 protease [3]; 20 μM of inhibitor): 133
"CCCCCCCCCCCCCCCCNC(=O)[C@H](CCCNC(=N)N)NC(=O)[C@H](C)NC(=O)[C@H](C)NC(=O)[C@H](CCCNC(=N)N)NC(=O)CCCCCCCCCCCCCCC [C16RA2RC16, n-C15H31C(O)-Arg-(Ala)2-Arg-(n-C16H33).2TFA] (HELM PEPTIDE1{[CCCCCCCCCCCCCCCC(=O)[*:2]].R.A.A.R.[CCCCCCCCCCCCCCCCN[*:1]]}$$$$V2.0)",,,,0,2.1 µM,,,,,,,,,,,,61%,128,,,
"CCCCCCCCCCCCNC(=O)[C@H](CCCCN)NC(=O)[C@H](C)NC(=O)[C@H](C)NC(=O)[C@H](CCCCN)NC(=O)CCCCCCCCCCC [C12KA2KC12, n-C11H23C(O)-Lys-(Ala)2-Lys-(n-C12H25).2TFA] (HELM PEPTIDE1{[CCCCCCCCCCCC(=O)[*:2]].K.A.A.K.[CCCCCCCCCCCCN[*:1]]}$$$$V2.0)",,,,,11.6 µM,,,,,,,,,,,,,,5,95%,Activity with 0.05% Triton (dengue 2 protease [3]; 20 μM of inhibitor): 216
